The source of these data is patent US20260357266A1, “COMPOSITION FOR KILLING A THERAPY-INDUCED SENESCENCE (TIS) CELLS AND USES THEREOF” (AJOU UNIVERSITY INDUSTRY-ACADEMIC COOPERATION FOUNDATION, priority 2022, published 2026).

The subject of data set [1] is MCF7 control cells and TIS cells. The experiment in a line: CCK8 assay and microscopy, senolytic effect on control and therapy-induced senescent (TIS) MCF7 cells. The data set is classed as cell-based. The conditions noted are these: for cell viability, TIS group compared to control group: CCK8, MCF7, FIG. 3b. The procedure:
FIGS. 3d and 3e show the results of CCK8 assay and microscopy performed to evaluate the cell killing effect of SGI-1776 after treating MCF7 cells (Ctrl and TIS) with another PIM1 kinase inhibitor, SGI-1776 (Selleckhem, Catalog No. S2198, CAS 1025065-69-3).
Therapy-induced senescent breast cancer cells were treated with the FDA-approved inhibitors (Table 1) for the 23 genes finally selected in Example 2, the senescent cell-selective cell division inhibitory effect and senolytic effect of the drugs were evaluated by CCK8 assay (D-Plus CCK, cell viability assay kit, Cat CCK-3000, Dong-In LS) (FIG. 3A). In this case, for the control group (cancer cells without therapy-induced senescence), the measurement was made after treatment with the inhibitor at the indicated concentration for 48 hours, and for the therapy-induced senescent cell group, the cancer cells were induced to senescence by treatment with adriamycin for 48 hours as described in Example 1, and then treated with the indicator at the indicated concentration for 48 hours while replacing the culture medium, the inhibitor was treated at the indicated concentration for 48 hours, and then the measurement was made.

In data set [2] the test system is SNU601, HSC4, and SW480 cells (control and TIS). Put plainly: CCK8 assay and microscopy, senolytic effect on control and TIS gastric, head and neck and colon cancer cells. The conditions noted are these: FIG. 5. Type of data set: cell-based. The procedure:
FIGS. 5a and 5b show the results of microscopy and CCK8 assay performed to evaluate the cell killing effect of PIM 1/2 inhibitor VI on control (Ctrl) cells and therapy-induced senescent (TIS) cells after treating cancer cell lines (HSC4: head and neck cancer, SNU601: gastric cancer, and SW480: colon cancer) with PIM 1/2 inhibitor VI.
Therapy-induced senescent breast cancer cells were treated with the FDA-approved inhibitors (Table 1) for the 23 genes finally selected in Example 2, the senescent cell-selective cell division inhibitory effect and senolytic effect of the drugs were evaluated by CCK8 assay (D-Plus CCK, cell viability assay kit, Cat CCK-3000, Dong-In LS) (FIG. 3A). […]
In order to evaluate the senolytic effect of a Pim-1 kinase inhibitor on gastric cancer (SNU601), head and neck cancer (HSC4), and colon cancer (SW480) cell lines induced to senescence by treatment, the concentration-dependent senolytic effect of the Pim-1 kinase inhibitor was evaluated in the same manner as described in Example 3.
Background: Formazan colour is commonly taken as a measure of viable cells.

In data set [3] the test system is senescent cell types, including senescent cancer cells. The conditions noted are these: literature (Aging Cell 15, 428-435 (2016); Nat. Med. 22, 78-83 (2016)); cited from earlier work.
Data set [4] concerns breast cancer cell lines (MCF7, ZR75-1, Hs578T, and MDA-MB-231). Put plainly: Cell size and SA-β-gal staining after therapy-induced senescence by adriamycin. Type of data set: cell-based. The conditions noted are these: 100 nM adriamycin for 48 h, then medium replaced and cultured 5 to 7 days. The procedure: (§1) To generate therapy-induced senescent tumor cells, breast cancer cell lines with contrasting characteristics (MCF7 and ZR75-1, which are female hormone receptor-positive but relatively less malignant, and Hs578T and MDA-MB-231, which are hormone receptor- and HER2 receptor-negative triple-negative breast cancer cell lines and are relatively more aggressive) were each treated with 100 nM of adriamycin (Selleckhem, Catalog No. S1208, CAS 25316-40-9). After 48 hours, the cell culture medium was replaced and the cells were cultured for 5 to 7 days, thereby generating therapy-induced senescent tumor cells.

The test system of the next data set is p21. The experiment in a line: p21 mRNA expression after therapy-induced senescence by adriamycin. The data set is classed as cell-based. The conditions noted are these: 100 nM adriamycin for 48 h, then medium replaced and cultured 5 to 7 days; MCF7, ZR75-1, Hs578T, MDA-MB-231. The procedure: as §1
In the next data set the test system is PIM-1 kinase. Put plainly: PIM-1 kinase mRNA/protein expression after therapy-induced senescence. The data set is classed as cell-based. The conditions noted are these: 10 μM cisplatin; MCF7, MDA-MB 231, MKN1, HSC4, SNU869. From the text: In addition to breast cancer cell lines (MCF7 and MDA-MB231), gastric cancer (SNU601, MKN1, and MKN74), colon cancer (SW480, and Hct116), head and neck cancer (HSC4), cervical cancer (HeLa S3), cholangiocarcinoma (SNU308, SNU478, and SNU1196), pancreatic adenocarcinoma (BxPC3), and prostate cancer (PC3) cell lines were induced to senescence by treatment in the same manner as in Example 1, thereby obtaining therapy-induced senescent cells.
(§2) In addition, in order to examine whether therapy-induced senescence (TIS) occurs even when using anticancer agents other than adriamycin, various cancer cell lines (MCF7, MDA-MB 231, MKN1, HSC4, and SNU869) were treated with 10 μM of cisplatin (Selleckhem, Catalog No. S1166 CAS 15663-27-1).

Data set [5] concerns various cancer cell lines (MCF7, MDA-MB 231, MKN1, HSC4, and SNU869). Put plainly: Therapy-induced senescence by cisplatin in various cancer cell lines. The conditions noted are these: 10 μM cisplatin; MCF7, MDA-MB 231, MKN1, HSC4, SNU869. Type of data set: cell-based. The procedure:
as §2

Regarding `CCCOc1ccc(/C=C2\SC(=O)NC2=O)cc1` [PIM1/2 kinase inhibitor VI], the “cell viability, TIS group compared to control group” value in data set [1] is on record as “significantly inhibited in a therapy-induced senescent cell group compared to a control group”. Besides, the “selective senolytic effect on therapy-induced senescent tumor cells” value in data set [1] (CCK8, inhibitor 48 h, TIS by adriamycin vs control, FIG. 3A) is “exhibited a selective senolytic effect on the therapy-induced senescent tumor cells”. Further, the “killing effect on TIS cells” value in data set [1] (FIGS. 3B and 3C, TIS cells) is “effectively killed the TIS cells”. The “cell growth and killing of control cells” value in data set [1] (FIGS. 3B and 3C, control cells, high concentrations) is on record as “inhibited cell growth in the control cells at high concentrations but hardly killed the control cells”. Moreover, the “senolytic effect on senescent cells compared with ABT-263” value in data set [1] (FIGS. 3B and 3C, versus ABT-263) is on record as “significantly superior to that of ABT-263”. The “killing effect on therapy-induced senescent tumor cells compared to normal tumor cells” value in data set [1] (summary statement, tumor cells induced to senescence by a chemotherapeutic agent) is reported as “a significant killing effect was observed on the therapy-induced senescent tumor cells compared to normal tumor cells”. Further, in data set [2] (SNU601, HSC4, SW480 TIS cells), the “killing effect on therapy-induced senescent cancer cells” value is “significant killing effect on the therapy-induced senescent cancer cells”. The “killing effect on control cells” value in data set [2] (SNU601, HSC4, SW480 control cells) is “no significant killing effect on the control cells”.

For `CC1(C)CCC(c2ccc(Cl)cc2)=C(CN2CCN(c3ccc(C(=O)NS(=O)(=O)c4ccc(N[C@H](CCN5CCOCC5)CSc5ccccc5)c(S(=O)(=O)C(F)(F)F)c4)cc3)CC2)C1` [ABT-263], the “cell viability, TIS group compared to control group” value in data set [1] is given as “significantly inhibited in a therapy-induced senescent cell group compared to a control group”. In addition, the “killing effect on both control and TIS cells” value in data set [1] (FIGS. 3B and 3C) is “almost complete killing effect on both the control and TIS cells”. Also, the “killing effect, control vs TIS cells” value in data set [1] (FIGS. 3B and 3C, difference between control and TIS cells) is “significant difference between the killing effect on the control cell and the killing effect on the TIS cells”. Besides, the “elimination of senescent cell types” value in data set [3] is “able to effectively eliminate a wide range of senescent cell types, including senescent cancer cells”.

For `COc1cccc2c1C(=O)c1c(O)c3c(c(O)c1C2=O)C[C@@](O)(C(=O)CO)C[C@@H]3O[C@H]1C[C@H](N)[C@H](O)[C@H](C)O1` [adriamycin], in data set [4], the cell size result is “the cell size of each breast cancer cell line increased” and the “number of cells positive to SA-b-gal” value is “the number of cells positive to SA-b-gal, a senescence marker, increased”. In the data set with p21, the “mRNA expression of p21” value was “increase significantly in each cell line”.

For `N.N.[Cl][Pt][Cl]` [cisplatin], in the data set on PIM-1 kinase, the “mRNA expression of the PIM-1 kinase gene” value is on record as “significantly increased”. The “occurrence of therapy-induced senescence (TIS)” value in data set [5] is listed as “therapy-induced senescence (TIS) occurred”.

As for `CN1CCC(CNc2ccc3ncc(-c4cccc(OC(F)(F)F)c4)n3n2)CC1` [SGI-1776], in data set [1] (FIG. 3D, MCF7), the “cytotoxicity to TIS cells compared to control cells” value is “high cytotoxicity to the TIS cells compared to the control cells”.
